Measured values taken from patent US10556920B2, “Phosphorus-containing heterocycles and a method for making and using” (University of Oregon, priority 2015, dated 2020).

Key:
Format in all cases: physicochemical
[1] = Fluorescence excitation/emission
Excerpt: ^1H and ^13C NMR spectra were obtained on a Varian 300 MHz spectrometer (^1H: […], ^13C: […]), Inova 500 MHz spectrometer (^1H: 500.10 MHz, ^13C: 125.75 MHz) or Varian 600 MHz spectrometer (^1H: 599.98 MHz, ^13C: 150.87 MHz). Chemical shifts (6) are expressed in ppm using non-deuterated solvent present in the bulk deuterated solvent (CDCl3: ^1H 7.26 ppm, ^13C 77.16 ppm; (CD3)2SO: ^1H 2.5 ppm, ^13C 39.52 ppm). Solvents and reagents were used as purchased from suppliers, unless anhydrous conditions were employed, in which solvents were freshly distilled from sodium/benzophenone under N2 atmosphere (THF) or as purchased in sealed, DriSolv containers (pyridine). Triphenylphosphite was freshly distilled under vacuum before use. Mass spectra were acquired with a Waters LCT Premier ESI-MS in positive mode using acetone as a solvent. UV-Vis spectra were acquired with a Hewlett-Packard 8453 UV-Visible spectrophotometer equipped with a 250 nm cutoff filter. Fluorescence data was acquired with a Horiba Jobin-Yvon FluoroMax-4 fluorescence spectrophotometer. HPLC performed using a JAI Recycling Preparative HPLC (Model LC-9101) with a JAIGEL-1H preparative column.
The compounds gave fluorescence emissions similar to those of carbostyril. (3-Ph-carbostyril ex: 345 nm, em: 410 nm; II-3 ex: 354 nm, em: 427 nm).
The only scaffold which responded to the addition of acid was one containing a 2-pyridyl substituent, which directly corresponded to protonation of the pyridine. The N—H proton of the NH—P(OPh)=O functionality is fairly acidic, and easily removed via treatment with organic bases such as DBU. […] The fluorophore II-7 gave substitution patterns that were followed for both red-shift and quantum yield optimization of carbostyril fluorophores. Following the guidelines within the scaffold, with placement of electron donating groups in the 6- and 7-positions, and an electron-withdrawing group in the 3-position, yielded a fluorophore with an emission of 505 nm and a quantum yield of 45% in CHCl3.

[2] = Stability of phosphonimidate form toward hydrolysis/heat; details: 100° C. reaction conditions
Excerpt: Disclosed herein is a synthetic approach to assemble the 2-λ^5-phosphaquinoline in one step from easily attainable starting materials. By treatment of a 2-ethynyl aniline (for example, accessible from Sonogashira cross-coupling with commercially available 2-iodoanilines) with triphenylphosphite, the disclosed compounds were synthesized in good to modest yields (Table 1). Typically, upon isolation and purification via hot recrystallization in ambient atmosphere, the phosphaquinoline partially hydrolyzed, yielding the phosphaquinolinone form and releasing phenol. However, the phosphonimidate form (A) appeared to be stable at room temperature. This reaction was tolerant to a variety of electron-rich and electron-poor arenes, as well as alkyl functionality attached at the ethynyl.
Except for compounds with a 2-pyridyl substituent, the phosphonimidate compounds tended to hydrolyze when heated in ambient atmosphere to give the phosphonamidate. If the reaction was performed rigorously water-free, and worked up with minimal exposure to ambient atmosphere, the phosphonimidate forms (I) can be isolated for all of the derivatives. […] This and stability of the phosphonimidate toward hydrolysis at room temperature lent credence to increased stability from delocalization within the heterocycle.

Dimerization in solution = assay: Dimerization in solution
Excerpt: This corresponded to an energy of 1.5 kcal/mol for each H-bond, which was quite high compared to cis-amides such as pyrrolidone or caprolactam, who experience dimerization constants from 1-5 M^−1 in CHCl3. […] As a result, this dimer deviated from the trends previously reported, where each attractive interaction gave −1.88 kcal/mol of energy to ΔG, and each repulsive secondary interaction gave +0.74 kcal/mol. Following the same schema, the two repulsive secondary interactions in the present dimer yielded only +0.76 kcal/mol of destabilization, about half of what was expected.

[3] = TEA added, in CHCl3 (deprotonated N-H)

| SMILES | fluorescence emission (em) ([1]; solvent not stated) [nm] | fluorescence excitation (ex) ([1]; solvent not stated) [nm] | fluorescence emission (em) ([1]; CHCl3, neutral form) [nm] | fluorescence emission (em) ([1]; MeCN) [nm] | also measured |
| --- | --- | --- | --- | --- | --- |
| O=P1(Oc2ccccc2)Nc2ccccc2C=C1c1ccccc1 (centres unmarked) [II-3, 2-phenoxy-3-phenyl-1H-benzo[e][1,2]azaphosphinine 2-oxide] | 427 | 354 |  |  |  |
| N#Cc1ccc(C2=Cc3cc4c(cc3NP2(=O)Oc2ccccc2)OCO4)cc1 (centres unmarked) [II-7, 4-(2-oxido-2-phenoxy-1H-[1,3]dioxolo[4′,5′:4,5]benzo[1,2-e][1,2]azaphosphinin-3-yl)benzonitrile] |  |  | 505 |  | quantum yield ([1]; in CHCl3): 45% |
| O=c1[nH]c2ccccc2cc1-c1ccccc1 [3-Ph-carbostyril, reference compound] | 410 | 345 |  |  |  |
| CCOC(=O)c1ccc(C2=Cc3ccccc3N=P2(Oc2ccccc2)Oc2ccccc2)cc1 [I-2, ethyl 4-(2,2-diphenoxy-2-λ^5-benzo[e][1,2]azaphosphinin-3-yl)benzoate] |  |  |  |  | stability under reaction conditions [2]: quite stable |
| COc1ccc(C2=Cc3ccccc3NP2(=O)Oc2ccccc2)cc1 (centres unmarked) [II-4, 3-(4-methoxyphenyl)-2-phenoxy-1H-benzo[e][1,2]azaphosphinine 2-oxide] |  |  | 411 | 411 |  |
| N#Cc1ccc(C2=Cc3ccccc3NP2(=O)Oc2ccccc2)cc1 (centres unmarked) [II-1, 4-(2-oxido-2-phenoxy-1H-benzo[e][1,2]azaphosphinin-3-yl)benzonitrile] |  |  | 430 | 450 | energy for each H-bond (Dimerization in solution; from dimerization constant in CDCl3): 1.5 kcal/mol; dimerization constant (Dimerization in solution; in CDCl3): 133 ± 15 M⁻¹; fluorescence excitation (ex) ([1]; CHCl3, neutral form): 345 nm; fluorescence emission (em) [1, 3]: 542 nm; fluorescence excitation (ex) [1, 3]: 360 nm; Stokes shift ([1]; upon treatment with base (TEA) in CHCl3): 180 nm |
